Measurements reported in PubChem BioAssay (NCI).
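Results reflect a 48-hour exposure of cells in 96-well plates to compound at five concentrations. The concentration for 50% growth inhibition is given as GI50. TGI marks complete inhibition of growth.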

Tests used:
Assay in all cases: growth of human tumour cells (NCI), 48 h; in the data active = GI50 below about 0.43 µM; inactive = the rest
786-0 renal = system: 786-0 renal
HS 578T breast = system: HS 578T breast
HT29 colon = system: HT29 colon
M14 melanoma = system: M14 melanoma
NCI-H460 lung = system: NCI-H460 lung
OVCAR-4 ovarian = system: OVCAR-4 ovarian
RPMI-8226 leukemia = system: RPMI-8226 leukemia
SF-295 CNS = system: SF-295 CNS
SW-620 colon = system: SW-620 colon
UACC-257 melanoma = system: UACC-257 melanoma

O=C(Nc1n[nH]c2nc(-c3ccco3)ccc12)C1CC1
inactive: GI50 (786-0 renal) > 25 µM | GI50 (HS 578T breast) > 25 µM | GI50 (HT29 colon) > 25 µM | GI50 (M14 melanoma) > 25 µM | GI50 (NCI-H460 lung) > 25 µM | GI50 (OVCAR-4 ovarian) > 25 µM | GI50 (RPMI-8226 leukemia) > 25 µM | GI50 (SF-295 CNS) > 25 µM | GI50 (SW-620 colon) > 25 µM | GI50 (UACC-257 melanoma) > 25 µM
> 25 µM: TGI (786-0 renal) | TGI (HS 578T breast) | TGI (HT29 colon) | TGI (M14 melanoma) | TGI (NCI-H460 lung) | TGI (OVCAR-4 ovarian) | TGI (RPMI-8226 leukemia) | TGI (SF-295 CNS) | TGI (SW-620 colon) | TGI (UACC-257 melanoma)

COc1cc(C#N)cc(OC)c1OCCOCCOc1c(OC)cc(C#N)cc1OC
inactive: GI50 (786-0 renal) > 100 µM | GI50 (HS 578T breast) > 100 µM | GI50 (HT29 colon) > 100 µM | GI50 (M14 melanoma) 52.2 µM | GI50 (NCI-H460 lung) 84.6 µM | GI50 (OVCAR-4 ovarian) 73.5 µM | GI50 (RPMI-8226 leukemia) 29.9 µM | GI50 (SF-295 CNS) 84.9 µM | GI50 (SW-620 colon) > 100 µM | GI50 (UACC-257 melanoma) 99.1 µM
> 100 µM: TGI (786-0 renal) | TGI (HS 578T breast) | TGI (HT29 colon) | TGI (M14 melanoma) | TGI (NCI-H460 lung) | TGI (OVCAR-4 ovarian) | TGI (RPMI-8226 leukemia) | TGI (SF-295 CNS) | TGI (SW-620 colon) | TGI (UACC-257 melanoma)

CNNCc1ccc(C(=O)NC(C)C)cc1
inactive: GI50 (786-0 renal) > 500 µM | GI50 (UACC-257 melanoma) > 500 µM
> 500 µM: TGI (786-0 renal) | TGI (HS 578T breast) | TGI (HT29 colon) | TGI (M14 melanoma) | TGI (NCI-H460 lung) | TGI (OVCAR-4 ovarian) | TGI (RPMI-8226 leukemia) | TGI (SF-295 CNS) | TGI (SW-620 colon) | TGI (UACC-257 melanoma)

Clc1cc(Cl)c(Cl)c(-c2nc(-c3cccnc3)cs2)c1
80.8 µM: TGI (RPMI-8226 leukemia)
98.8 µM: TGI (OVCAR-4 ovarian)
> 100 µM: TGI (HT29 colon) | TGI (M14 melanoma) | TGI (NCI-H460 lung)
55.5 µM: TGI (HS 578T breast)
70.4 µM: TGI (SF-295 CNS)
64.8 µM: TGI (UACC-257 melanoma)
29.8 µM: TGI (786-0 renal)
inactive: GI50 (786-0 renal) 12.9 µM | GI50 (HS 578T breast) 18.6 µM | GI50 (HT29 colon) 12.1 µM | GI50 (M14 melanoma) 4.47 µM | GI50 (NCI-H460 lung) 37.7 µM | GI50 (OVCAR-4 ovarian) 25.6 µM | GI50 (RPMI-8226 leukemia) 17.9 µM | GI50 (SF-295 CNS) 26.2 µM | GI50 (SW-620 colon) 9.34 µM | GI50 (UACC-257 melanoma) 15.3 µM
23.6 µM: TGI (SW-620 colon)

O=C1/C(=C\C(Cl)=C/c2ccc([N+](=O)[O-])cc2)SC(=S)N1CCc1ccc(O)cc1
1.26 µM: TGI (SW-620 colon)
0.707 µM: TGI (786-0 renal)
2.04 µM: TGI (HS 578T breast)
1.8 µM: TGI (OVCAR-4 ovarian)
inactive: GI50 (HT29 colon) 0.429 µM | GI50 (M14 melanoma) 0.494 µM | GI50 (NCI-H460 lung) 1.82 µM | GI50 (OVCAR-4 ovarian) 0.496 µM | GI50 (SF-295 CNS) 0.501 µM | GI50 (UACC-257 melanoma) 1.65 µM
active: GI50 (786-0 renal) 0.255 µM | GI50 (HS 578T breast) 0.354 µM | GI50 (RPMI-8226 leukemia) 0.268 µM | GI50 (SW-620 colon) 0.324 µM
0.884 µM: TGI (RPMI-8226 leukemia)
4.28 µM: TGI (UACC-257 melanoma)
1.84 µM: TGI (M14 melanoma)
2.28 µM: TGI (HT29 colon)
4.05 µM: TGI (NCI-H460 lung)
1.06 µM: TGI (SF-295 CNS)

Cc1c2c(nn1C(=O)c1nn(-c3ccc(Cl)cc3)cc1O)-c1ccccc1CC2
active: GI50 (786-0 renal) 0.319 µM | GI50 (HS 578T breast) 0.0201 µM | GI50 (HT29 colon) 0.226 µM | GI50 (M14 melanoma) 0.0842 µM | GI50 (NCI-H460 lung) 0.0237 µM | GI50 (OVCAR-4 ovarian) 0.246 µM | GI50 (RPMI-8226 leukemia) 0.0432 µM | GI50 (SF-295 CNS) 0.0119 µM | GI50 (SW-620 colon) 0.289 µM | GI50 (UACC-257 melanoma) 0.218 µM
9.73 µM: TGI (UACC-257 melanoma)
0.0613 µM: TGI (NCI-H460 lung)
> 64.1 µM: TGI (786-0 renal)
> 100 µM: TGI (HS 578T breast) | TGI (OVCAR-4 ovarian) | TGI (SW-620 colon)
> 50.6 µM: TGI (HT29 colon)
0.0548 µM: TGI (SF-295 CNS)
> 45.5 µM: TGI (M14 melanoma)

Cc1cccc2c(N=Nc3ccc(S(N)(=O)=O)cc3)c(O)[nH]c12
> 25 µM: TGI (786-0 renal) | TGI (HS 578T breast) | TGI (HT29 colon) | TGI (M14 melanoma) | TGI (NCI-H460 lung) | TGI (OVCAR-4 ovarian) | TGI (RPMI-8226 leukemia) | TGI (SF-295 CNS) | TGI (SW-620 colon) | TGI (UACC-257 melanoma)
inactive: GI50 (786-0 renal) > 25 µM | GI50 (HS 578T breast) > 25 µM | GI50 (HT29 colon) > 25 µM | GI50 (M14 melanoma) > 25 µM | GI50 (NCI-H460 lung) > 25 µM | GI50 (OVCAR-4 ovarian) > 25 µM | GI50 (RPMI-8226 leukemia) > 25 µM | GI50 (SF-295 CNS) > 25 µM | GI50 (SW-620 colon) > 25 µM | GI50 (UACC-257 melanoma) > 25 µM

CCOC(=O)c1c(C)nc2ccc(Cl)cc2c1-c1ccccc1
75.3 µM: TGI (HT29 colon)
40 µM: TGI (RPMI-8226 leukemia)
45.2 µM: TGI (NCI-H460 lung)
inactive: GI50 (786-0 renal) 17 µM | GI50 (HS 578T breast) 19.6 µM | GI50 (HT29 colon) 16.1 µM | GI50 (M14 melanoma) 18.7 µM | GI50 (NCI-H460 lung) 20.2 µM | GI50 (OVCAR-4 ovarian) 20.6 µM | GI50 (RPMI-8226 leukemia) 15.9 µM | GI50 (SF-295 CNS) 19.4 µM | GI50 (SW-620 colon) 19.2 µM | GI50 (UACC-257 melanoma) 25.5 µM
52.3 µM: TGI (M14 melanoma)
46.8 µM: TGI (SF-295 CNS)
66.6 µM: TGI (OVCAR-4 ovarian)
83.1 µM: TGI (UACC-257 melanoma)
47 µM: TGI (SW-620 colon)
35.1 µM: TGI (786-0 renal)
52.1 µM: TGI (HS 578T breast)

Nc1ncnc2c1nc(-c1ccccc1)n2C1OC(CO)C(O)C1O (stereo unspecified)
> 100 µM: TGI (786-0 renal) | TGI (HS 578T breast) | TGI (HT29 colon) | TGI (M14 melanoma) | TGI (NCI-H460 lung) | TGI (OVCAR-4 ovarian) | TGI (RPMI-8226 leukemia) | TGI (SF-295 CNS) | TGI (SW-620 colon) | TGI (UACC-257 melanoma)

CCCc1cc2cc(-n3nc(C)c4c3CC(C)(C)CC4=O)cc(NC3CCC(O)CC3)c2c(=O)[nH]1 (stereo unspecified)
> 100 µM: TGI (786-0 renal) | TGI (HS 578T breast) | TGI (HT29 colon) | TGI (M14 melanoma) | TGI (NCI-H460 lung) | TGI (OVCAR-4 ovarian) | TGI (SW-620 colon) | TGI (UACC-257 melanoma)
2.06 µM: TGI (SF-295 CNS)
inactive: GI50 (786-0 renal) 0.874 µM | GI50 (HS 578T breast) 0.989 µM | GI50 (OVCAR-4 ovarian) > 39.6 µM | GI50 (RPMI-8226 leukemia) 0.465 µM
active: GI50 (HT29 colon) 0.0308 µM | GI50 (M14 melanoma) 0.0944 µM | GI50 (NCI-H460 lung) 0.0744 µM | GI50 (SF-295 CNS) 0.307 µM | GI50 (SW-620 colon) 0.0578 µM | GI50 (UACC-257 melanoma) 0.372 µM
14.9 µM: TGI (RPMI-8226 leukemia)
